Assay results as given in PubChem BioAssay (NCI).
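Compound exposure: 48 hours, 5 concentrations, 96-well plates. At the GI50, growth is halved. Definition used: TGI = concentration required for complete inhibition of growth.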

Experiments:
Test in all cases: DTP human tumour cell line panel, 48 h
RXF 393 renal = tested on: RXF 393 renal
OVCAR-5 ovarian = tested on: OVCAR-5 ovarian
SNB-75 CNS = tested on: SNB-75 CNS
MDA-MB-435 = tested on: MDA-MB-435
HOP-92 NSCLC = tested on: HOP-92 NSCLC
NCI-H460 lung = tested on: NCI-H460 lung
A498 renal = tested on: A498 renal
OVCAR-8 ovarian = tested on: OVCAR-8 ovarian
UO-31 renal = tested on: UO-31 renal
SK-MEL-5 melanoma = tested on: SK-MEL-5 melanoma
CAKI-1 renal = tested on: CAKI-1 renal
BT-549 breast = tested on: BT-549 breast
U251 CNS = tested on: U251 CNS
HCT-116 colon = tested on: HCT-116 colon
HCT-15 colon = tested on: HCT-15 colon
EKVX NSCLC = tested on: EKVX NSCLC
M14 melanoma = tested on: M14 melanoma
PC-3 prostate = tested on: PC-3 prostate
OVCAR-4 ovarian = tested on: OVCAR-4 ovarian
A549 NSCLC = tested on: A549 NSCLC
NCI/ADR-RES ovarian = tested on: NCI/ADR-RES ovarian
DU-145 prostate = tested on: DU-145 prostate
ACHN renal = tested on: ACHN renal
HCC-2998 colon = tested on: HCC-2998 colon
SF-295 CNS = tested on: SF-295 CNS
NCI-H226 lung = tested on: NCI-H226 lung
NCI-H23 lung = tested on: NCI-H23 lung
KM12 colon = tested on: KM12 colon

CNCCNc1nc2ccccc2c2c(=O)c3cc(F)ccc3sc12
GI50 (RXF 393 renal): 1.6 µM | TGI (RXF 393 renal): 3.1 µM | GI50 (OVCAR-5 ovarian): 1.65 µM | TGI (OVCAR-5 ovarian): 3.21 µM | GI50 (SNB-75 CNS): 1.58 µM | TGI (SNB-75 CNS): 5.6 µM | GI50 (MDA-MB-435): 1.71 µM | TGI (MDA-MB-435): 3.22 µM | GI50 (HOP-92 NSCLC): 1.73 µM | TGI (HOP-92 NSCLC): 7.42 µM | GI50 (NCI-H460 lung): 1.78 µM | TGI (NCI-H460 lung): 3.32 µM | GI50 (A498 renal): 2.05 µM | TGI (A498 renal): 6.96 µM | GI50 (OVCAR-8 ovarian): 1.85 µM | TGI (OVCAR-8 ovarian): 3.84 µM | GI50 (UO-31 renal): 1.39 µM | TGI (UO-31 renal): 2.81 µM | GI50 (SK-MEL-5 melanoma): 1.82 µM | TGI (SK-MEL-5 melanoma): 3.34 µM | GI50 (CAKI-1 renal): 1.38 µM | TGI (CAKI-1 renal): 2.77 µM | GI50 (BT-549 breast): 3.59 µM | TGI (BT-549 breast): 14.9 µM | GI50 (U251 CNS): 1.63 µM | TGI (U251 CNS): 3.18 µM | GI50 (HCT-116 colon): 1.49 µM | TGI (HCT-116 colon): 2.81 µM | GI50 (HCT-15 colon): 1.65 µM | TGI (HCT-15 colon): 3.26 µM | GI50 (EKVX NSCLC): 1.74 µM | TGI (EKVX NSCLC): 3.57 µM | GI50 (M14 melanoma): 1.64 µM | TGI (M14 melanoma): 3.07 µM | GI50 (PC-3 prostate): 1.52 µM | TGI (PC-3 prostate): 3.3 µM | GI50 (OVCAR-4 ovarian): 1.8 µM | TGI (OVCAR-4 ovarian): 3.66 µM | GI50 (A549 NSCLC): 1.65 µM | TGI (A549 NSCLC): 3.29 µM | GI50 (NCI/ADR-RES ovarian): 1.82 µM | TGI (NCI/ADR-RES ovarian): 3.83 µM | GI50 (DU-145 prostate): 1.71 µM | TGI (DU-145 prostate): 3.15 µM | GI50 (ACHN renal): 1.56 µM | TGI (ACHN renal): 2.91 µM | GI50 (HCC-2998 colon): 1.7 µM | TGI (HCC-2998 colon): 3.45 µM | GI50 (SF-295 CNS): 1.82 µM | TGI (SF-295 CNS): 3.4 µM | GI50 (NCI-H226 lung): 1.8 µM | TGI (NCI-H226 lung): 3.76 µM | GI50 (NCI-H23 lung): 1.8 µM | TGI (NCI-H23 lung): 3.65 µM | GI50 (KM12 colon): 1.74 µM | TGI (KM12 colon): 3.25 µM
